Molecular target: T1, CDC7/DBF4 (Cell division cycle 7-related protein kinase/Activator of S phase kinase) (Homo sapiens, UniProt O00311)
Experiment: Inhibition of N-terminal GST-fused full-length human CDC7 (1 to 574 end residues)/DBF4 (1 to 674 residues) expressed in baculovirus expression system using MCM2 as substrate preincubated with enzyme for 10 mins prior to 1 uM ATP addition by HTRF transcreener ADP assay
Settings: not given

First: Cc1n[nH]cc1-c1cc2nc(C34CC(CN3)C4)[nH]c(=O)c2s1
Second: Cc1n[nH]cc1-c1cc2nc([C@@H]3CCCN3)[nH]c(=O)c2s1
The IC50 of the first is 4.4-fold lower: 0.16 nM for the first, 0.71 nM for the second. The first is the more potent here.

Going from `Cc1n[nH]cc1-c1cc2nc([C@@H]3CCCN3C)[nH]c(=O)c2s1` to `Cc1n[nH]cc1-c1cc2nc([C@H]3CC4CCN3CC4)[nH]c(=O)c2s1`, the IC50 falls from 1.9 nM to 1 nM (1.9-fold).

`Cc1n[nH]cc1-c1cc2nc([C@@H]3CCCCCN3)[nH]c(=O)c2s1` and `Cc1n[nH]cc1-c1cc2nc([C@H]3CCCCN3)[nH]c(=O)c2s1` are within 1.5-fold of each other in IC50: 1.2 nM for the first, 0.91 nM for the second.

Going from `Cc1[nH]ncc1-c1cc2nc([C@@H]3CC4CCN3CC4)[nH]c(=O)c2s1` [SIMUROSERTIB] to `Cc1n[nH]cc1-c1cc2nc([C@@H]3CCC(C)(C)N3)[nH]c(=O)c2s1`, the IC50 rises from 0.26 nM to 1.9 nM (7.3-fold). The first is the more potent here.

`O=c1[nH]c([C@@H]2CCCCN2)nc2cc(-c3c[nH]nc3C(F)(F)F)sc12` showed an IC50 of 0.43 nM.

Species: Homo sapiens
Experiment: Selectivity index, ratio of IC50 N-terminal GST-tagged human ROCK1 catalytic domain (1 to 477 residues) expressed in baculovirus expression system to IC50 for N-terminal GST-fused full-length human CDC7 (1 to 574 end residues)/DBF4 (1 to 674 residues) expressed in baculovirus expression system
Settings: not given

Going from `Cc1n[nH]cc1-c1cc2nc([C@@H]3CCCN3C)[nH]c(=O)c2s1` to `Cc1n[nH]cc1-c1cc2nc([C@@H]3CCCN3)[nH]c(=O)c2s1`, the Ratio IC50 rises from 84 to 510.

First: Cc1n[nH]cc1-c1cc2nc([C@@H]3CCCCCN3)[nH]c(=O)c2s1
Second: Cc1n[nH]cc1-c1cc2nc([C@@H]3CCC(C)(C)N3)[nH]c(=O)c2s1
The Ratio IC50 of the first is lower: 380 for the first, 790 for the second.

Molecular target: T2, Cell division cycle 7-related protein kinase (Homo sapiens, UniProt O00311)
Experiment: Inhibition of CDC7 in human HeLa cells assessed as inhibition of MCM2 phosphorylation at Ser40 residue in human HeLa cells after 7 hrs by Western blot analysis
Type: cell-based
Settings: not given

Compared with `Cc1n[nH]cc1-c1cc2nc(C34CC(CN3)C4)[nH]c(=O)c2s1`, `O=c1[nH]c([C@@H]2CCCCN2)nc2cc(-c3c[nH]nc3C(F)(F)F)sc12` is 3.2-fold lower in IC50: 130 nM for the first, 41 nM for the second.

For `Cc1[nH]ncc1-c1cc2nc([C@@H]3CC4CCN3CC4)[nH]c(=O)c2s1` [SIMUROSERTIB], the IC50 was 17 nM.

Molecular target: Rho-associated protein kinase 1 (Homo sapiens, UniProt Q13464)
Experiment: Inhibition of N-terminal GST-tagged human ROCK1 catalytic domain (1 to 477 residues) expressed in baculovirus expression system using biotin-STK-substrate 2 as substrate preincubated with enzyme for 5 mins followed by ATP addition and measured after 2 hrs by TR-FRET assay
Settings: not given

Going from `Cc1n[nH]cc1-c1cc2nc(C34CC(CN3)C4)[nH]c(=O)c2s1` to `Cc1n[nH]cc1-c1cc2nc([C@@H]3CCCN3)[nH]c(=O)c2s1`, the IC50 rises from 220 nM to 360 nM (1.6-fold).

Going from `Cc1n[nH]cc1-c1cc2nc([C@@H]3CCCN3C)[nH]c(=O)c2s1` to `Cc1n[nH]cc1-c1cc2nc([C@H]3CC4CCN3CC4)[nH]c(=O)c2s1`, the IC50 rises from 160 nM to 460 nM (2.9-fold). The first is the more potent here.

`Cc1n[nH]cc1-c1cc2nc([C@@H]3CCCCCN3)[nH]c(=O)c2s1` and `Cc1n[nH]cc1-c1cc2nc([C@H]3CCCCN3)[nH]c(=O)c2s1` are within 1.5-fold of each other in IC50: 450 nM for the first, 370 nM for the second.

Compared with `Cc1[nH]ncc1-c1cc2nc([C@@H]3CC4CCN3CC4)[nH]c(=O)c2s1` [SIMUROSERTIB], `Cc1n[nH]cc1-c1cc2nc([C@@H]3CCC(C)(C)N3)[nH]c(=O)c2s1` is 3.5-fold higher in IC50: 430 nM for the first, 1500 nM for the second. The first is the more potent here.

Molecule `O=c1[nH]c([C@@H]2CCCCN2)nc2cc(-c3c[nH]nc3C(F)(F)F)sc12` has an IC50 of 530 nM.

Molecular target: T2, Cell division cycle 7-related protein kinase
Experiment: Binding affinity to CDC7 (unknown origin) assessed as equilibrium dissociation constant
Settings: not given

`Cc1[nH]ncc1-c1cc2nc([C@@H]3CC4CCN3CC4)[nH]c(=O)c2s1` [SIMUROSERTIB] was tested, and the Kd was 0.424 nM.

Molecular target: T1, CDC7/DBF4 (Cell division cycle 7-related protein kinase/Activator of S phase kinase)
Experiment: Inhibition of N-terminal GST-fused full-length human CDC7 (1 to 574 end residues)/DBF4 (1 to 674 residues) expressed in baculovirus expression system using MCM2 as substrate in presence of 50 uM ATP by HTRF transcreener ADP assay
Settings: not given

`Cc1n[nH]cc1-c1cc2nc(C34CC(CN3)C4)[nH]c(=O)c2s1` and `O=c1[nH]c([C@@H]2CCCCN2)nc2cc(-c3c[nH]nc3C(F)(F)F)sc12` are within 1.5-fold of each other in IC50: 77 nM for the first, 72 nM for the second.

In the case of `Cc1[nH]ncc1-c1cc2nc([C@@H]3CC4CCN3CC4)[nH]c(=O)c2s1` [SIMUROSERTIB], the IC50 is reported as 43 nM.

Species: Homo sapiens
Experiment: Selectivity index, ratio of IC50 for N-terminal GST-tagged full-length human CDK2 (1 to 298 residues)/Cyclin E (1 to 410 residues) expressed in baculovirus expression system to IC50 for N-terminal GST-fused full-length human CDC7 (1 to 574 end residues)/DBF4 (1 to 674 residues) expressed in baculovirus expression system
Settings: not given

`Cc1n[nH]cc1-c1cc2nc([C@@H]3CCCN3C)[nH]c(=O)c2s1` and `Cc1n[nH]cc1-c1cc2nc([C@@H]3CCCN3)[nH]c(=O)c2s1` cannot be ordered by Ratio IC50: over 5300 for the first, 5500 for the second.

First: Cc1n[nH]cc1-c1cc2nc([C@@H]3CCCCCN3)[nH]c(=O)c2s1
Second: Cc1n[nH]cc1-c1cc2nc([C@@H]3CCC(C)(C)N3)[nH]c(=O)c2s1
The Ratio IC50 of the first is lower: 2300 for the first, over 5300 for the second.

Molecular target: T1, CDC7/DBF4 (Cell division cycle 7-related protein kinase/Activator of S phase kinase)
Experiment: Inhibition of N-terminal GST-fused full-length human CDC7 (1 to 574 end residues)/DBF4 (1 to 674 residues) expressed in baculovirus expression system using MCM2 as substrate preincubated with enzyme for 60 mins prior to 50 uM ATP addition by HTRF transcreener ADP assay
Settings: not given

Going from `Cc1n[nH]cc1-c1cc2nc(C34CC(CN3)C4)[nH]c(=O)c2s1` to `O=c1[nH]c([C@@H]2CCCCN2)nc2cc(-c3c[nH]nc3C(F)(F)F)sc12`, the IC50 falls from 2.1 nM to 0.72 nM (2.9-fold). The second is the more potent here.

With `Cc1[nH]ncc1-c1cc2nc([C@@H]3CC4CCN3CC4)[nH]c(=O)c2s1` [SIMUROSERTIB] the IC50 was 0.54 nM.

Tested on: COLO 205
Experiment: Antiproliferative activity against human COLO205 cells assessed as reduction in cell growth after 3 days by CellTiter-Glo luminescence assay
Type: functional, cell-based
Settings: COLO 205, 72 h

Compared with `Cc1n[nH]cc1-c1cc2nc(C34CC(CN3)C4)[nH]c(=O)c2s1`, `O=c1[nH]c([C@@H]2CCCCN2)nc2cc(-c3c[nH]nc3C(F)(F)F)sc12` is 3.3-fold lower in EC50: 750 nM for the first, 230 nM for the second.

Molecular target: Cyclin-dependent kinase 2/cyclin E1 (Homo sapiens, UniProt P24941)
Experiment: Inhibition of N-terminal GST-tagged full-length human CDK2 (1 to 298 residues)/Cyclin E (1 to 410 residues) expressed in baculovirus expression system using histone H1 as susbtrate after 90 mins by Kinase-Glo luminescence assay
Settings: not given

`Cc1n[nH]cc1-c1cc2nc(C34CC(CN3)C4)[nH]c(=O)c2s1` and `Cc1n[nH]cc1-c1cc2nc([C@@H]3CCCN3)[nH]c(=O)c2s1` are within 1.5-fold of each other in IC50: 2700 nM for the first, 3900 nM for the second.

`Cc1n[nH]cc1-c1cc2nc([C@@H]3CCCN3C)[nH]c(=O)c2s1` and `Cc1n[nH]cc1-c1cc2nc([C@H]3CC4CCN3CC4)[nH]c(=O)c2s1` cannot be ordered by IC50: over 10000 nM for the first, over 10000 nM for the second.

Compared with `Cc1n[nH]cc1-c1cc2nc([C@@H]3CCCCCN3)[nH]c(=O)c2s1`, `Cc1n[nH]cc1-c1cc2nc([C@H]3CCCCN3)[nH]c(=O)c2s1` is 1.7-fold higher in IC50: 2800 nM for the first, 4800 nM for the second. The first is the more potent here.

First: O=c1[nH]c([C@@H]2CCCCN2)nc2cc(-c3c[nH]nc3C(F)(F)F)sc12
Second: Cc1n[nH]cc1-c1cc2nc([C@@H]3CCC(C)(C)N3)[nH]c(=O)c2s1
The IC50 of the first is lower: 9500 nM for the first, over 10000 nM for the second. The first is the more potent here.
